Reference: the supplement of paper PMC6723410

Test system: GUMC-403
Experiment: viability at highest tested concentration (max response) relative to DMSO (% of DMSO control); higher = less cytotoxic
Settings: library / dose series: MIPE library, 11-point 1:3 dilution, 48 h
How it was run: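 This value is viability at the highest tested concentration relative to vehicle control. GUMC-403 papilloma cells from a patient, grown by conditional reprogramming, were plated at 700/well in 1536-well plates and given 23 nL of compound by pin tool for 48 h. CellTiter-Glo luminescence on a ViewLux was normalised with vehicle wells at 100% and empty wells at 0%.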

| SMILES | viability (top concentration 46.1 µM) | viability (top concentration 4.61 µM) |
| --- | --- | --- |
| ClC1=CC\2=C(OC3=C(C=CC=C3)\N=C2N4CCNCC4)C=C1 | 110 | – |
| CCCCN(CCCC)CC(O)c1cc(Cl)cc2c1-c1ccc(Cl)cc1/C2=C/c1ccc(Cl)cc1 (configuration not stated) | 104 | – |
| CCCCn1c(=O)n(Cc2ccccc2F)c(=O)c2nc(Cc3ccc(NC(C)=O)cc3)[nH]c21 | 94 | – |
| O=C1NCCc2[nH]c(-c3ccncc3)cc21 | 125 | – |
| Cc1ccc(F)c(NC(=O)Nc2ccc(-c3cccc4[nH]nc(N)c34)cc2)c1 | 50.7 | – |
| OC1=CC2=C(C(=C1)O)C(=O)\C(=C(/O2)C3=CC(=C(O)C(=C3)O)O)O | 102 | – |
| C1CCC(C(CC2CCCCN2)C2CCCCC2)CC1 (configuration not stated) | 85.1 | – |
| CO/N=C(\C(=O)N[C@@H]1C(=O)N2C(C(=O)OCOC(=O)C(C)(C)C)=C(/C=C\c3scnc3C)CS[C@H]12)c1csc(N)n1 | 137 | – |
| CC(C)N(CC[C@H](c1ccccc1)c1cc(CO)ccc1O)C(C)C | 137 | – |
| CN1CCN(c2ncc(-c3cc(Cl)cc(Cl)c3Cl)c(N)n2)CC1 | 119 | – |
| COc1nccc(-c2c(-c3ccc(F)cc3)ncn2C2CCC(O)CC2)n1 (configuration not stated) | 131 | – |
| C=C(c1ccc(C(=O)O)cc1)c1cc2c(cc1C)C(C)(C)CCC2(C)C | 97.6 | – |
| CC\1=C/C=C\C=[N]1[Pt](N)(Cl)Cl | 136 | – |
| C\C1=C\N([C@H]2C[C@H](N=[N+]=[N-])[C@@H](CO)O2)C(=O)NC1=O | 113 | – |
| CC[C@H](C)C(=O)O[C@H]1C[C@H](O)\C=C2\C=C/[C@H](C)[C@H](CC[C@@H](O)C[C@@H](O)CC(O)=O)[C@@H]12 | 103 | – |
| NC/1=N/[C@]2(COC[C@H]2CS1)C3=CC(=CC=C3F)NC(=O)C4=NC=C(F)C=C4 | 117 | – |
| CC(C)c1cnn2c(NCc3ccccc3)cc(NCCCCCCN)nc12 | 72.8 | – |
| O=C(N[C@H](CO)[C@H](O)c1ccc([N+](=O)[O-])cc1)C(Cl)Cl | 130 | – |
| CN1[C@@H]2CC[C@H]1CC(OC(=O)c1c[nH]c3ccccc13)C2 (some centres not stated) | 134 | – |
| O=C(O)/C=C/c1ccc(O)c(O)c1 | 120 | – |
| COc1nccc(-c2c(-c3ccc(F)cc3)ncn2C2CCNCC2)n1 | 131 | – |

| SMILES | viability (top concentration 46.1 µM) | viability (top concentration 4.61 µM) |
| --- | --- | --- |
| CC/1=C(/N2[C@H](SC1)[C@H](NC(=O)[C@H](N)\C3=C\C\C=C/C3)C2=O)C(O)=O | 121 | – |
| Oc1c(Cl)cc(Cl)c2cccnc12 | 128 | – |
| CCC(=O)NCC[C@@H]1CCc2ccc3c(c21)CCO3 | 122 | – |
| COc1ccc2c(c1)c(CC(=O)O)c(C)n2C(=O)c1ccc(Cl)cc1 | 111 | – |
| CCCCCCCCCCCC/1=C(O)/C(=O)/C=C(O)\C1=O | 89 | – |
| O=C(NC[C@H](O)CO)c1ccncc1Nc1ccc(I)cc1F | 72.6 | – |
| CNC(=O)c1ccc(N2C(=S)N(c3ccc(C#N)c(C(F)(F)F)c3)C(=O)C2(C)C)cc1F | 119 | – |
| COc1ccc(/C=C\c2cc(OC)c(OC)c(OC)c2)cc1NC(=O)[C@H](N)CO | 85.1 | – |
| CC(C)n1c(/C=C/[C@H](O)C[C@H](O)CC(=O)O)c(-c2ccc(F)cc2)c2ccccc21 | 103 | – |
| Cc1cncc2cccc([S+](=O)([O-])N3CCCN(C(=O)CN)C[C@@H]3C)c12 | 138 | – |
| C[C@@H](N)C1CC[C@@H](CC1)C(=O)NC2=CC=NC=C2 (some centres not stated) | 152 | – |
| CCOC(=O)c1ccc(C#Cc2ccc3c(c2)C(C)(C)CCS3)nc1 | 118 | – |
| COC/1=C/[C@@H]2[C@@H]3CC4=C(C(=C(OC)C=C4)O)[C@]2(CCN3C)CC1=O | 65 | – |
| CCc1ccc(C(=O)Nc2cc(CN3CCN(C)CC3)cc(C(F)(F)F)c2)cc1C#Cc1cnc2ccnn2c1 | 119 | – |
| CCC(C)N1\N=C/N(C1=O)C2=CC=C(C=C2)N3CCN(CC3)C4=CC=C(OC[C@H]5CO[C@@](C[N]6C=NC=N6)(O5)C7=CC=C(Cl)C=C7Cl)C=C4 (some centres not stated) | 101 | – |
| C[C@]\12CC[C@H](O)CC1=C/CC3C2CC[C@@]\4(C)C3C\C=C4[N]5C=NC6=C5C=CC=C6 (some centres not stated) | 108 | – |
| COc1ccc2c(c1OC)CN1CCc3cc4c(cc3C1C2)OCO4 (configuration not stated) | 121 | – |
| CC/1=C(\CCN2CCC(CC2)C3=NOC4=C3C=CC(=C4)F)C(=O)N/5CCCCC5=N1 | 114 | – |
| Cc1cccc(C#Cc2ccccc2)n1 | 101 | – |
| CN1\C(=C(\O)C2=C(C=CS2)[S+]1([O-])=O)C(=O)NC3=CC=CC=N3 | 126 | – |
| CC(C)(C)[C@H](NC(=O)c1ccc(N)c(Cl)c1)C(=O)N1CCC[C@H]1C(=O)N[C@H](C#N)CC(=O)O | – | 131 |
